Laboratory results published in patent US11759462B2, “Spirocyclic compounds as tryptophan hydroxylase inhibitors” (priority 2013, dated 2023).

These compounds were tested against T1, Recombinant human TPH1 (MBP tagged) (Homo sapiens, UniProt P17752) (assay: TPH1 in vitro inhibition assay (kinetic fluorescence)). Conditions: TPH1 Range (TPH1 inhibition IC50).
T1 construct: cloning full length human TPH1 cDNA in to a bacterial pMAL-c5E expression vector; made in house; host or cells: E. coli BL21 (DE3)
T1 sequence (P17752 1-444): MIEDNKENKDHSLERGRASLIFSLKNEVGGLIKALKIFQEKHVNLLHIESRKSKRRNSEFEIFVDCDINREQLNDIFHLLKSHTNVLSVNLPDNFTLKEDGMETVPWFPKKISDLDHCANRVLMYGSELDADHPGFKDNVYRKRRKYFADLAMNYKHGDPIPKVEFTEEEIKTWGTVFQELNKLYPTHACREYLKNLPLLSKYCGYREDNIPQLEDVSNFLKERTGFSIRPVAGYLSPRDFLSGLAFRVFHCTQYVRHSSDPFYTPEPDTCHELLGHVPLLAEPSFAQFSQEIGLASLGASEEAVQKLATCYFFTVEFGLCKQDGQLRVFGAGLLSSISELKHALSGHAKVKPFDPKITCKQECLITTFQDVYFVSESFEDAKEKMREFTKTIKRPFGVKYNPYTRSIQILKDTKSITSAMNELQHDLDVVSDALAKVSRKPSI
Format: biochemical
Outline: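 Final mix: 15 nM MBP-TPH1, 30 μM Trp, 36 μM 6-methyltetrahydropterin, 25 μM ferrous ammonium sulfate, 50 mM MES pH 7.1, 1% DMSO, room temperature.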

SMILES	IC50 [µM]
COc1cccc(-c2cc(Cl)ccc2[C@@H](Oc2cc(N3CCC4(CC3)CN[C@H](C(=O)O)C4)nc(N)n2)C(F)(F)F)c1 [Example 34y, (S)-8-(2-amino-6-((R)-1-(5-chloro-3′-methoxy-[1,1′-biphenyl]-2-yl)-2,2,2-trifluoroethoxy)pyrimidin-4-yl)-2,8-diazaspiro[4.5]decane-3-carboxylic acid]	< 0.05
Nc1nc(O[C@H](c2ccc(Cl)cc2-c2ccccc2)C(F)(F)F)cc(N2CCC3(CC2)CN[C@H](C(=O)O)C3)n1 [Example 34c, (S)-8-(2-amino-6-((R)-1-(5-chloro-[1,1′-biphenyl]-2-yl)-2,2,2-trifluoroethoxy)pyrimidin-4-yl)-2,8-diazaspiro[4.5]decane-3-carboxylic acid]	0.05 to 0.3

Same assay, conditions: read-out: TPH1 Range (TPH1 inhibition IC50)

SMILES	IC50 [µM]
Nc1nc(O[C@H](c2ccc(-c3ccc4c(c3)CCCO4)cc2)C(F)(F)F)cc(N2CCC3(CC2)CN[C@H](C(=O)O)C3)n1 [Example 55dq, (S)-8-(2-amino-6-((R)-1-(4-(chroman-6-yl)phenyl)-2,2,2-trifluoroethoxy)pyrimidin-4-yl)-2,8-diazaspiro[4.5]decane-3-carboxylic acid]	< 0.05
Nc1nc(O[C@H](c2ccc(Cl)cc2N2CCCC2=O)C(F)(F)F)cc(N2CCC3(CC2)CN[C@H](C(=O)O)C3)n1 [Example 33, (S)-8-(2-amino-6-((R)-1-(4-chloro-2-(2-oxopyrrolidin-1-yl)phenyl)-2,2,2-trifluoroethoxy)pyrimidin-4-yl)-2,8-diazaspiro[4.5]decane-3-carboxylic acid]	0.05 to 0.3
Cc1ccc(-c2cc(Cl)ccc2[C@@H](Oc2cc(N3CCC4(CC3)CN[C@H](C(=O)O)C4)nc(N)n2)C(F)(F)F)cc1F [Example 34bn, (S)-8-(2-amino-6-((R)-1-(5-chloro-3′-fluoro-4′-methyl-[1,1′-biphenyl]-2-yl)-2,2,2-trifluoroethoxy)pyrimidin-4-yl)-2,8-diazaspiro[4.5]decane-3-carboxylic acid]	0.05 to 0.3
CCCc1ccc(-n2ccc(C)n2)c([C@@H](Oc2cc(N3CCC4(CC3)CN[C@H](C(=O)O)C4)nc(N)n2)C(F)(F)F)c1 [Example 22b]	< 0.05
Cc1cc(C)cc(-c2ccc([C@@H](Oc3cc(N4CCC5(CC4)CN[C@H](C(=O)O)C5)nc(N)n3)C(F)(F)F)cc2)c1 [Example 55cq, (S)-8-(2-amino-6-((R)-1-(3′,5′-dimethyl-[1,1′-biphenyl]-4-yl)-2,2,2-trifluoroethoxy)pyrimidin-4-yl)-2,8-diazaspiro[4.5]decane-3-carboxylic acid]	0.05 to 0.3
COc1ccc(-c2ccc([C@@H](Oc3cc(N4CCC5(CC4)CN[C@H](C(=O)O)C5)nc(N)n3)C(F)(F)F)c(-n3ccc(C)n3)c2)cn1 [Example 1s, (S)-8-(2-amino-6-((R)-2,2,2-trifluoro-1-(4-(6-methoxypyridin-3-yl)-2-(3-methyl-1H-pyrazol-1-yl)phenyl)ethoxy)pyrimidin-4-yl)-2,8-diazaspiro[4.5]decane-3-carboxylic acid]	< 0.05
Cc1ccn(-c2cc(-c3ccc(OC(C)C)c(C)c3)ccc2[C@@H](Oc2cc(N3CCC4(CC3)CN[C@H](C(=O)O)C4)nc(N)n2)C(F)(F)F)n1 [Example 1by, (S)-8-(2-amino-6-((R)-2,2,2-trifluoro-1-(4′-isopropoxy-3′-methyl-3-(3-methyl-1H-pyrazol-1-yl)-[1,1′-biphenyl]-4-yl)ethoxy)pyrimidin-4-yl)-2,8-diazaspiro[4.5]decane-3-carboxylic acid]	< 0.05
Cn1ccc(-c2cc(Cl)ccc2[C@@H](Oc2cc(N3CCC4(CC3)CN[C@H](C(=O)O)C4)nc(N)n2)C(F)(F)F)n1 [Example 34t, (S)-8-(2-amino-6-((R)-1-(4-chloro-2-(1-methyl-1H-pyrazol-3-yl)phenyl)-2,2,2-trifluoroethoxy)pyrimidin-4-yl)-2,8-diazaspiro[4.5]decane-3-carboxylic acid]	0.05 to 0.3
CC(C)c1ccc(-c2ccc([C@@H](Oc3cc(N4CCC5(CC4)CN[C@H](C(=O)O)C5)nc(N)n3)C(F)(F)F)cc2)cc1 [Example 55cj, (S)-8-(2-amino-6-((R)-2,2,2-trifluoro-1-(4′-isopropyl-[1,1′-biphenyl]-4-yl)ethoxy)pyrimidin-4-yl)-2,8-diazaspiro[4.5]decane-3-carboxylic acid]	0.3 to 3
Nc1nc(O[C@H](c2ccc(-c3ccc4c(c3)COC4=O)cc2)C(F)(F)F)cc(N2CCC3(CC2)CN[C@H](C(=O)O)C3)n1 [Example 55s, (S)-8-(2-amino-6-((R)-2,2,2-trifluoro-1-(4-(1-oxo-1,3-dihydroisobenzofuran-5-yl)phenyl)ethoxy)pyrimidin-4-yl)-2,8-diazaspiro[4.5]decane-3-carboxylic acid]	< 0.05
Cc1cc(Cl)cc(-c2cc(Cl)ccc2[C@@H](Oc2cc(N3CCC4(CC3)CN[C@H](C(=O)O)C4)nc(N)n2)C(F)(F)F)c1 [Example 34be, (S)-8-(2-amino-6-((R)-1-(3′,5-dichloro-5′-methyl-[1,1′-biphenyl]-2-yl)-2,2,2-trifluoroethoxy)pyrimidin-4-yl)-2,8-diazaspiro[4.5]decane-3-carboxylic acid]	< 0.05
Cc1ccn(-c2cc(C(=O)OCC(C)C)ccc2[C@@H](Oc2cc(N3CCC4(CC3)CN[C@H](C(=O)O)C4)nc(N)n2)C(F)(F)F)n1 [Example 18e, (S)-8-(2-amino-6-((R)-2,2,2-trifluoro-1-(4-(isobutoxycarbonyl)-2-(3-methyl-1H-pyrazol-1-yl)phenyl)ethoxy)pyrimidin-4-yl)-2,8-diazaspiro[4.5]decane-3-carboxylic acid]	< 0.05
Nc1nc(NCc2ccccc2N2CCCCC2)cc(N2CCC3(CC2)CN[C@H](C(=O)O)C3)n1 [Example 41a, (S)-8-(2-Amino-6-((2-(piperidin-1-yl)benzyl)amino)pyrimidin-4-yl)-2,8-diazaspiro[4.5]decane-3-carboxylic acid]	0.3 to 3
Cc1ccn(-c2cc(-c3ccc4ncccc4c3)ccc2[C@@H](Oc2cc(N3CCC4(CC3)CN[C@H](C(=O)O)C4)nc(N)n2)C(F)(F)F)n1 [Example 1ad, (S)-8-(2-amino-6-((R)-2,2,2-trifluoro-1-(2-(3-methyl-1H-pyrazol-1-yl)-4-(quinolin-6-yl)phenyl)ethoxy)pyrimidin-4-yl)-2,8-diazaspiro[4.5]decane-3-carboxylic acid]	< 0.05
Nc1cccc(-c2cc(Cl)ccc2[C@@H](Oc2cc(N3CCC4(CC3)CNC(C(=O)O)C4)nc(N)n2)C(F)(F)F)c1 (stereo partly drawn) [Example 34f, 8-(2-amino-6-((R)-1-(3′-amino-5-chloro-[1,1′-biphenyl]-2-yl)-2,2,2-trifluoroethoxy)pyrimidin-4-yl)-2,8-diazaspiro[4.5]decane-3-carboxylic acid]	0.05 to 0.3
CNC(=O)c1ccc(-c2ccc([C@@H](Oc3cc(N4CCC5(CC4)CN[C@H](C(=O)O)C5)nc(N)n3)C(F)(F)F)c(-n3ccc(C)n3)c2)cc1 [Example 1ch, (S)-8-(2-amino-6-((R)-2,2,2-trifluoro-1-(3-(3-methyl-1H-pyrazol-1-yl)-4′-(methylcarbamoyl)-[1,1′-biphenyl]-4-yl)ethoxy)pyrimidin-4-yl)-2,8-diazaspiro[4.5]decane-3-carboxylic acid]	0.05 to 0.3
Nc1nc(O[C@H](c2ccc3ccccc3c2)C(F)(F)F)cc(N2CCC3(CC2)CN[C@H](C(=O)O)C3)n1 [Example 59b, (S)-8-(2-amino-6-((R)-2,2,2-trifluoro-1-(naphthalen-2-yl)ethoxy)pyrimidin-4-yl)-2,8-diazaspiro[4.5]decane-3-carboxylic acid]	0.3 to 3
Cc1cc(Cl)cc(-c2ccc([C@@H](Oc3cc(N4CCC5(CC4)CN[C@H](C(=O)O)C5)nc(N)n3)C(F)(F)F)c(-n3ccc(C)n3)c2)c1 [Example 1an, (S)-8-(2-amino-6-((R)-1-(3′-chloro-5′-methyl-3-(3-methyl-1H-pyrazol-1-yl)-[1,1′-biphenyl]-4-yl)-2,2,2-trifluoroethoxy)pyrimidin-4-yl)-2,8-diazaspiro[4.5]decane-3-carboxylic acid]	< 0.05
Cc1ccn(-c2cc(-c3ccc(Cl)cc3)ccc2[C@@H](Oc2cc(N3CCC4(CC3)CN[C@H](C(=O)O)C4)nc(N)n2)C(F)(F)F)n1 [Example 1ah, (S)-8-(2-amino-6-((R)-1-(4′-chloro-3-(3-methyl-1H-pyrazol-1-yl)-[1,1′-biphenyl]-4-yl)-2,2,2-trifluoroethoxy)pyrimidin-4-yl)-2,8-diazaspiro[4.5]decane-3-carboxylic acid]	< 0.05
Cc1ccc(-c2ccc([C@@H](Oc3cc(N4CCC5(CC4)CN[C@H](C(=O)O)C5)nc(N)n3)C(F)(F)F)cc2)cc1C [Example 55ch, (S)-8-(2-amino-6-((R)-1-(3′,4′-dimethyl-[1,1′-biphenyl]-4-yl)-2,2,2-trifluoroethoxy)pyrimidin-4-yl)-2,8-diazaspiro[4.5]decane-3-carboxylic acid]	0.05 to 0.3
Cc1ccn(-c2ccc(-c3cccc(/C=C/C(=O)O)c3)cc2[C@@H](Oc2cc(N3CCC4(CC3)CN[C@H](C(=O)O)C4)nc(N)n2)C(F)(F)F)n1 [Example 19h, (S)-8-(2-amino-6-((R)-1-(3′-((E)-2-carboxyvinyl)-4-(3-methyl-1H-pyrazol-1-yl)-[1,1′-biphenyl]-3-yl)-2,2,2-trifluoroethoxy)pyrimidin-4-yl)-2,8-diazaspiro[4.5] decane-3-carboxylic acid]	< 0.05
